Where a name gives a salt, the structure may show the parent alone.
Experiments:
[1] = molecular target: IRAK1 (His-TEV-IRAK1 (194-712)) (Homo sapiens (Human), UniProt P51617); assay: IRAK1 enzymatic assay; type: biochemical
Procedure: IRAK1 is a human purified recombinant enzyme (His-TEV-IRAK1 (194-712)). In this assay, IRAK-1 hydrolyses ATP and autophosphorylates. Measurement of IRAK-1 inhibition was performed in streptavidin coated 384well FlashPlate (PerkinElmer #SMP410A).
His-TEV-IRAK-1 (15 ng/well), ATP (1 μM, [33P]ATP 0.25 μCi/well) and compounds in DMSO (range of concentrations from 20 µM to 1 nM) or controls (2% DMSO) were incubated for 3 hours at 30° C. in assay buffer: Hepes pH7.0 50 mM, Fatty acid-free BSA 0.1%, Dithiothreitol DTT 2 mM, MgCl2 10 mM, EGTA 0.5 mM, Triton-X-100 0.01%. Kinase reaction was stopped by addition of EDTA. Supernatant was discarded, plates were washed three times with 150 mM NaCl and radioactivity was then measured in a Microbeta Trilux reader.

IRAK4 = IRAK4 (Homo sapiens (Human), UniProt Q9NWZ3); assay: IRAK4 enzymatic assay; type: biochemical
Sequence of IRAK4 (Q9NWZ3 whole entry): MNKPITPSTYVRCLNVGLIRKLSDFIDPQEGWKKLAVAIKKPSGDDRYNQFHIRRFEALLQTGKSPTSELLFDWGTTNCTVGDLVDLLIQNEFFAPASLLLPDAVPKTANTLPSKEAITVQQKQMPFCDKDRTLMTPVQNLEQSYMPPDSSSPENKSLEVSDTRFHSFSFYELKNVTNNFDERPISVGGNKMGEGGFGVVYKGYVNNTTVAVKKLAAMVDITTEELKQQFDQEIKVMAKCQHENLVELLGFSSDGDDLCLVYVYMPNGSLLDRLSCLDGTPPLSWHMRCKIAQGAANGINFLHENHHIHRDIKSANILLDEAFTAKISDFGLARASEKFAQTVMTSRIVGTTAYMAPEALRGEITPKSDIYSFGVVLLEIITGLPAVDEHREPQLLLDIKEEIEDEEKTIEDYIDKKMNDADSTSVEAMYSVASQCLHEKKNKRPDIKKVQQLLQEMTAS
Procedure: IRAK4 is a human purified recombinant enzyme ([…]. IRAK4 hydrolyses ATP, autophosphorylates and phosphorylates a Serine/Threonine generic peptidic substrate (STK: 61ST1BLC from CisBio International based in Bagnols/Cèze FR).
Measurement of IRAK-4 inhibition was performed in streptavidin coated 384well FlashPlate (PerkinElmer #SMP410A). His-TEV-IRAK4 (20 ng/well), ATP (2 μM, [^33P]ATP 0.25 µCi/well), STK1-biotin peptide (300 nM) and compounds in DMSO (range of concentrations from 20 µM to 1 nM) or controls (2% DMSO) were incubated for 3 hours at 30° C. in assay buffer: Hepes pH7.0 50 mM, Fatty acid-free BSA 0.1%, Dithiothreitol DTT 2 mM, MgCl2 10 mM, EGTA 0.5 mM, Tween-20 0.01%, MnCl2 5 mM.
Kinase reaction was stopped by addition of EDTA. Supernatant was discarded, plates were washed three times with 150 mM NaCl and radioactivity was then measured in a Microbeta Trilux reader.

Sequence of IRAK1 (His-TEV-IRAK1 (194-712)) (P51617 194-712): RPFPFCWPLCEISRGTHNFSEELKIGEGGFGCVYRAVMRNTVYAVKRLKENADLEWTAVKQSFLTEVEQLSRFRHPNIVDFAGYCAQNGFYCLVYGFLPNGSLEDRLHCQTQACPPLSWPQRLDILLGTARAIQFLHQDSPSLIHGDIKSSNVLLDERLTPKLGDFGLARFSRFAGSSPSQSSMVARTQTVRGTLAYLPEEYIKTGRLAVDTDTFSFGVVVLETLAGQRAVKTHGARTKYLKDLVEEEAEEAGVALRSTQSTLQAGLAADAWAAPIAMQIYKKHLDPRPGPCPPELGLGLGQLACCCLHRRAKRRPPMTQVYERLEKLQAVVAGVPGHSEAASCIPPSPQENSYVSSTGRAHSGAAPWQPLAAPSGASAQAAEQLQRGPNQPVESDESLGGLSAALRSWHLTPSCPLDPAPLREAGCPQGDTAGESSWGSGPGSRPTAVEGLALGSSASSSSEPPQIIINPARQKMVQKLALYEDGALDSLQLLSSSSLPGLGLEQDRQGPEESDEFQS

IC50 [1] [µM]	IC50 (IRAK4) [µM]	Compound
> 5	< 0.1	Cn1cc(-c2cccc(-c3ncc(-c4ccn(C)n4)c(N[C@H]4CCC[C@@H]4O)n3)c2)cn1 (racemic) [Example 95]
> 5	0.1 to 1	Cn1cc(-c2cccc(-c3ncc(-c4ccn(C)n4)c(NC[C@H]4CCNC[C@H]4O)n3)c2)cn1 (racemic) [Example 116]
> 5	0.1 to 1	Cn1cc(-c2cccc(-c3ncc(-c4cnn(C)c4)c(NC[C@H]4CCNC[C@H]4O)n3)c2)cn1 (racemic) [Example 126]
1 to 5	< 0.1	Cn1cc(-c2cccc(-c3ncc(-c4cnn(C)c4)c(NC[C@H]4CC[C@@H](O)C4)n3)c2)cn1 (racemic) [Example 164]
0.1 to 1	< 0.1	Cn1cc(-c2cccc(-c3ncc(-c4cnn(C)c4)c(NC[C@H]4CC[C@H](O)C4)n3)c2)cn1 (racemic) [Example 165]
0.1 to 1	< 0.1	Cn1cc(-c2cccc(-c3ncc(-c4cnn(C)c4)c(NCC4CCOC4)n3)c2)cn1 (racemic) [Example 166]
1 to 5	< 0.1	Cn1cc(-c2cccc(-c3ncc(-c4cnn(C)c4)c(N[C@@H]4CC[C@H](NS(C)(=O)=O)C4)n3)c2)cn1 (racemic) [Example 176]
> 5	0.1 to 1	CC(=O)N[C@@H]1CCC[C@@H]1CNc1nc(-c2cccc(-c3cnn(C)c3)c2)ncc1-c1cnn(C)c1 (relative stereo) [Example 206, N-[(Cis)-2-({5-(1-Methyl-1H-pyrazol-4-yl)-2-[3-(1-methyl-1H-pyrazol-4-yl)-phenyl]-pyrimidin-4-ylamino}-methyl)-cyclopentyl]-acetamide]
> 5	1 to 5	Cn1cc(-c2cccc(-c3ncc(-c4cnn(C)c4)c(NCCN4CCCC4=O)n3)c2)cn1 [Example 39]
> 5	1 to 5	Cn1cc(-c2cccc(-c3ncc(-c4cnn(C)c4)c(NCCCN4CCCC4=O)n3)c2)cn1 [Example 40]
> 5	1 to 5	Cn1cc(-c2cccc(-c3ncc(-c4cnn(C)c4)c(NCCCN4CCOCC4)n3)c2)cn1 [Example 51]
1 to 5	1 to 5	Cn1cc(-c2cccc(-c3ncc(-c4cnn(C)c4)c(NCCN4CCNC4=O)n3)c2)cn1 [Example 58]
> 5	0.1 to 1	Cn1cc(-c2cccc(-c3ncc(-c4cnn(C)c4)c(NCC4CNCCO4)n3)c2)cn1 (centres unmarked) [Example 59]
> 5	0.1 to 1	Cn1cc(-c2cccc(-c3ncc(-c4cnn(C)c4)c(NC[C@@H]4CCC(=O)N4)n3)c2)cn1 [Example 61]
1 to 5	0.1 to 1	Cn1cc(-c2cccc(-c3ncc(-c4cnn(C)c4)c(NC[C@H]4CCNC4)n3)c2)cn1 [Example 64]
> 5	0.1 to 1	Cn1cc(-c2cccc(-c3ncc(-c4ccn(C)n4)c(NCCCN4CCOC4=O)n3)c2)cn1 [Example 67]
1 to 5	0.1 to 1	Cn1cc(-c2cccc(-c3ncc(-c4ccn(C)n4)c(NCCCO)n3)c2)cn1 [Example 68]
> 5	0.1 to 1	Cn1cc(-c2cccc(-c3ncc(-c4ccn(C)n4)c(NCCN4CCOCC4)n3)c2)cn1 [Example 69]
0.1 to 1	1 to 5	Cn1cc(-c2cccc(-c3ncc(-c4ccn(C)n4)c(NCCN4CCCC4=O)n3)c2)cn1 [Example 70]
> 5	> 5	Cn1cc(-c2cccc(-c3ncc(-c4ccn(C)n4)c(NCC4(C)CCC4)n3)c2)cn1 [Example 71]
> 5	1 to 5	Cn1cc(-c2cccc(-c3ncc(-c4ccn(C)n4)c(NCCCN4CCCC4=O)n3)c2)cn1 [Example 72]

The next lines start with the compound.

Compound	IC50 [1] [µM]	IC50 (IRAK4) [µM]
Cn1cc(-c2cccc(-c3ccc(-c4cnn(C5CCNCC5)c4)cn3)n2)cn1 [Example 2, 6′-(1-Methyl-1H-pyrazol-4-yl)-5-(1-piperidin-4-yl-1H-pyrazol-4-yl)-[2,2′]bipyridinyl]	1 to 5	0.1 to 1
Cn1cc(-c2cccc(-c3ncc(-c4cnn(C)c4)c(NCC4CCCN(C(=O)OC(C)(C)C)C4)n3)c2)cn1 (centres unmarked) [Example 3, 3-({5-(1-Methyl-1H-pyrazol-4-yl)-2-[3-(1-methyl-1H-pyrazol-4-yl)-phenyl]-pyrimidin-4-ylamino}-methyl)-piperidine-1-carboxylic Acid Tert-Butyl Ester]	1 to 5	–
Cn1cc(-c2cccc(-c3ncc(-c4cnn(C)c4)c(NCC4CCCNC4)n3)c2)cn1 (centres unmarked) [Example 4, {5-(1-Methyl-1H-pyrazol-4-yl)-2-[3-(1-methyl-1H-pyrazol-4-yl)-phenyl]-pyrimidin-4-yl}-piperidin-3-ylmethyl-amine Hydrochloride]	1 to 5	1 to 5
Cn1cc(-c2cccc(-c3ncc(-c4cnn(C)c4)c(N4CCCC(CNC(=O)OC(C)(C)C)C4)n3)c2)cn1 (centres unmarked) [Example 5, (1-{5-(1-Methyl-1H-pyrazol-4-yl)-2-[3-(1-methyl-1H-pyrazol-4-yl)-phenyl]-pyrimidin-4-yl}-piperidin-3-ylmethyl)-carbamic Acid Tert-Butyl Ester]	1 to 5	> 5
Cn1cc(-c2cccc(-c3ncc(-c4cnn(C)c4)c(N4CCCC(CN)C4)n3)c2)cn1 (centres unmarked) [Example 6, C-(1-{5-(1-Methyl-1H-pyrazol-4-yl)-2-[3-(1-methyl-1H-pyrazol-4-yl)-phenyl]-pyrimidin-4-yl}-piperidin-3-yl)-methylamine Hydrochoride]	> 5	1 to 5
Cn1cc(-c2cccc(-c3ncc(-c4ccn(C)n4)c(OCC4CCCCO4)n3)c2)cn1 (centres unmarked) [Example 8, 5-(1-Methyl-1H-pyrazol-3-yl)-2-[3-(1-methyl-1H-pyrazol-4-yl)-phenyl]-4-(tetrahydro-pyran-2-ylmethoxy)-pyrimidine]	> 5	1 to 5
Cn1cc(-c2cccc(-c3ncc(-c4ccn(C)n4)c(NCC4CCNCC4)n3)c2)cn1 [Example 12, {5-(1-Methyl-1H-pyrazol-3-yl)-2-[3-(1-methyl-1H-pyrazol-4-yl)-phenyl]-pyrimidin-4-yl}-piperidin-4-ylmethyl-amine]	> 5	> 5
Cn1cc(-c2cccc(-c3ncc(-c4cnn(C)c4)c(NC4CCN(S(C)(=O)=O)CC4)n3)c2)cn1 [Example 14, (1-Methanesulfonyl-piperidin-4-yl)-{5-(1-methyl-1H-pyrazol-4-yl)-2-[3-(1-methyl-1H-pyrazol-4-yl)-phenyl]-pyrimidin-4-yl}-amine]	< 0.1	< 0.1
Cn1cc(-c2cccc(-c3cc(C(F)(F)F)c(-c4cnn(C5CCOCC5)c4)cn3)c2)cn1 [Example 23, 2-[3-(1-Methyl-1H-pyrazol-4-yl)-phenyl]-5-[1-(tetrahydro-pyran-4-yl)-1H-pyrazol-4-yl]-4-trifluoromethyl-pyridine]	> 5	1 to 5
Cc1cc(-c2cccc(-c3cnn(C)c3)c2)ncc1-c1cnn(C2CCOCC2)c1 [Example 24, 4-Methyl-2-[3-(1-methyl-1H-pyrazol-4-yl)-phenyl]-5-[1-(tetrahydro-pyran-4-yl)-1H-pyrazol-4-yl]-pyridine]	> 5	1 to 5
Cn1cc(-c2cccc(-c3ncc(-c4cnn(C)c4)c(NCC(N)=O)n3)c2)cn1 [Example 25, 2-{5-(1-Methyl-1H-pyrazol-4-yl)-2-[3-(1-methyl-1H-pyrazol-4-yl)-phenyl]-pyrimidin-4-ylamino}-acetamide formate]	> 5	1 to 5
Cn1cc(-c2cccc(-c3ncc(-c4cnn(C)c4)c(NCC(=O)O)n3)c2)cn1 [Example 26, {5-(1-Methyl-1H-pyrazol-4-yl)-2-[3-(1-methyl-1H-pyrazol-4-yl)-phenyl]-pyrimidin-4-ylamino}-acetic Acid Formate]	> 5	> 5
Cn1cc(-c2cccc(-c3ncc(-c4ccn(C)n4)c(NC4CCC4)n3)c2)cn1 [Example 27, Cyclobutyl-{5-(1-methyl-1H-pyrazol-3-yl)-2-[3-(1-methyl-1H-pyrazol-4-yl)-phenyl]-pyrimidin-4-yl}-amine]	1 to 5	0.1 to 1
Cn1cc(-c2cccc(-c3ncc(-c4ccn(C)n4)c(NC4CC4)n3)c2)cn1 [Example 29]	1 to 5	0.1 to 1
Cn1cc(-c2cccc(-c3ncc(-c4cnn(C)c4)c(NC4CC4)n3)c2)cn1 [Example 30]	0.1 to 1	0.1 to 1
Cn1cc(-c2cccc(-c3ncc(-c4cnn(C)c4)c(NC4CCC4)n3)c2)cn1 [Example 31]	0.1 to 1	0.1 to 1
Cn1cc(-c2cccc(-c3ncc(-c4ccn(C)n4)c(NC4CCCC4)n3)c2)cn1 [Example 33]	1 to 5	1 to 5
Cn1cc(-c2cccc(-c3ncc(-c4cnn(C)c4)c(NCCN)n3)c2)cn1 [Example 34]	> 5	1 to 5

From patent US9790221B2, “Heteroaryl compounds as IRAK inhibitors and uses thereof” (Merck Patent GmbH, priority 2014, dated 2017)
